{"source": "patent US20250144230A1", "about": "“LINKERS FOR USE IN ANTIBODY DRUG CONJUGATES” (Orum Therapeutics, Inc., priority 2021, published 2025)", "molecules": {"B1": {"name": "CD79b-A antibody (antibody, V domains shown)", "VH": "EVQLVESGGGLVQPGGSLRLSCAASGYTFSSYWIEWVRQAPGKGLEWIGEILPGGGDTNYNEIFKGRATFSADTSKNTAYLQMNSLRAEDTAVYYCTRRVPIRLDYWGQGTLVTVSS", "VL": "DIQLTQSPSSLSASVGDRVTITCKASQSVDYEGDSFLNWYQQKPGKAPKLLIYAASNLESGVPSRFSGSGSGTDFTLTISSLQPEDFATYYCQQSNEDPLTFGQGTKVEIK", "notes": "also called Polatuzumab"}}, "key": {"CD79b [1]": {"target": "T1, CD79b (Homo sapiens, UniProt P40259)", "T1 construct": "endogenous in cells; host or cells: Ramos", "T1 sequence (P40259 29-229)": "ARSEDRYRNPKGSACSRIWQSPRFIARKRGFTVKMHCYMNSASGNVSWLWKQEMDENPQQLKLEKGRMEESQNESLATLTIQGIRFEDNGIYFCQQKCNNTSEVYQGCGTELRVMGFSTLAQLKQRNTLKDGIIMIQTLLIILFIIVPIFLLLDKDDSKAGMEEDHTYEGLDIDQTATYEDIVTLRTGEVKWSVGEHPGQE", "T1 sequence (P11912 33-226 partner)": "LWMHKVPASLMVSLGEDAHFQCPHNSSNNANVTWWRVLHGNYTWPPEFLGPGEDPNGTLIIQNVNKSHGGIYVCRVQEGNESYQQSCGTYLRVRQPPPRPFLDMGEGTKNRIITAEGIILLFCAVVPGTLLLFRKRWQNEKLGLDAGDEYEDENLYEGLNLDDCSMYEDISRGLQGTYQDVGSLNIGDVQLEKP", "test": "Binding of conjugate and parent antibody to cancer cells (flow cytometry), CD79b / Ramos", "details": "1 hour at 4° C.; conjugate at DARs 2.0, 3.2 and 4.6"}, "[2]": {"tested_on": "MV-4-11 human acute myeloid leukemia cells", "test": "In vivo MV-4-11 subcutaneous myeloid leukemia tumor model", "parameters": "species or system Athymic Nude mice", "description": "Subcutaneous tumor model—MV-4-11 human acute myeloid leukemia cells (1×10^7 cells in 0.1 mL) were subcutaneously inoculated into the right flank of female Athymic Nude mice. Mice were treated with each test article when the tumor size reached 100-150 mm^3. 10 mg/kg of CD33-D antibody-Compound (XL) conjugate (in 20 mM succinate, 8% sucrose, 0.01% Tween-20 pH 5.5) was delivered by intravenous administration (IV) once a week for 2 weeks. 0.4 mg/kg of Compound (XL) (in 5% NMP, 45% PEG300, 20 mM NaPi pH 6.5) and 10 mg/kg of ARV-825 (as described in Liu, et al. Chemistry & Biology 2015, volume 22, pages 755-763) in 1.5 mg/mL, 5% Kolliphor, HS15 WFI Buffer was treated by intraperitoneal administration (IP) once a day for 14 days. Tumor size and mouse body weight were measured twice per week. Subcutaneous tumor volume (mm^3) was calculated with the following formula: (a×b^2/2) where ‘b’ is the smallest diameter and ‘a’ is the largest diameter. The study endpoint is that individual mice were euthanized following respective tumor volume ≥1,000 mm^3 or day 60, whichever came first."}, "MV-4-11 cells": {"tested_on": "MV-4-11 cells", "test": "In vitro MV-4-11 antiproliferation assay (alamarBlue)", "assay_type": "cell-based, human", "details": "4 days, test article alone", "description": "MV-4-11 cells were exposed to varying concentrations of conjugates or antibodies for 4 days with/without 1 μM of the blocking antibody Gemtuzumab or Trastuzumab. Viability of the cells was determined by alamarBlue. The antiproliferative activity of the gemtuzumab conjugate of Compound (XL) and the unconjuaged BRD4 degrader small molecule Compound 40-3 are showin in FIG. 13. […] The antibodies alone were not active up to […]."}, "BRD4": {"target": "T2, BRD4 (Homo sapiens, UniProt O60885)", "T2 construct": "endogenous in cells; host or cells: MV4-11", "test": "In vitro BRD4 protein degradation assay (Western blot)", "assay_type": "cell-based", "details": "10 nM, MV4-11 cells, overnight", "description": "The ability of the claimed conjugates to degrade BRD4 was measured using an in vitro degradation assay. MV4-11 cells were incubated with test article overnight. Protein was loaded to 4-12% NuPAGE Bis-Tris gel. Western blot with rabbit anti-BRD4 Ab (Cell Signaling #13440) was performed at 1:1,000 dilution and re-blotting with β-actin HRP (Cell Signaling #5125) was performed at 1:1,000. The degradation activity of the gemtuzumab conjugate Compound (XL) and the unconjuaged BRD4 degrader small molecule Compound 40-3 are shown in FIG. 14."}, "CD79b [3]": {"target": "T3, CD79b (UniProt P40259 29-229, limits assumed)", "T3 construct": "whole, on cells; Endogenous antigen on the cell line", "T3 sequence (looked up)": "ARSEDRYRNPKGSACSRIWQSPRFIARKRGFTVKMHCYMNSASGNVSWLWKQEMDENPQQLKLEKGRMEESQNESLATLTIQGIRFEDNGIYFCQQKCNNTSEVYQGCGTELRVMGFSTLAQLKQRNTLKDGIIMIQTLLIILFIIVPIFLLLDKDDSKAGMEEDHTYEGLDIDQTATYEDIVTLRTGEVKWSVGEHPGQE", "test": "flow cytometry binding to Ramos cells (procedure of Example 10)"}}}
{"molecule": "Synagis N297A: non-binding control antibody", "values": [{"measurement": "CD79b binding on Ramos cells by flow cytometry (in words)", "setting": "CD79b [1]", "value": "relatively negligible signal intensity"}]}
{"molecule": "Cc1sc2c(c1C)C(c1ccc(Cl)cc1)=N[C@@H](CC(=O)Nc1ccc(OCCOCCOCCOCCNc3cccc4c3C(=O)N(C3CCC(=O)NC3=O)C4=O)cc1)c1nnc(C)n1-2", "note": "(stereo partly drawn) [ARV-825]", "values": [{"measurement": "effect on MV-4-11 tumor growth", "setting": "[2]; 10 mg/kg IP once a day for 14 days", "value": "inactive"}]}
{"molecule": "Cn1cc(-c2cc(NC(=O)CCCCC(=O)NCCCCNc3cccc4c3C(=O)N(C3CCC(=O)NC3=O)C4=O)ccc2Oc2ccc(F)cc2F)c2cc[nH]c2c1=O", "note": "(stereo not drawn) [Compound 40-3, N′-[4-(2,4-difluorophenoxy)-3-{6-methyl-7-oxo-1H-pyrrolo[2,3-c]pyridin-4-yl}phenyl]-N-(4-{[2-(2,6-dioxopiperidin-3-yl)-1,3-dioxoisoindol-4-yl]amino}butyl)hexanediamide, reference compound]", "values": [{"measurement": "antiproliferative activity against MV-4-11 cells (in words)", "setting": "MV-4-11 cells", "value": "highly active"}, {"measurement": "effect on MV-4-11 tumor growth", "setting": "[2]; 0.4 mg/kg IP once a day for 14 days (equivalent to conjugated payload dose)", "value": "inactive"}, {"measurement": "reduction in BRD4 protein band intensity", "setting": "BRD4", "value": "> 90", "unit": "%"}]}
{"molecule": "B1", "values": [{"measurement": "EC50", "setting": "CD79b [3]", "value": 740, "unit": "pM"}]}
